Laboratory results taken from patent US8399452B2, “Dibenzo[b,f][1,4]oxazepin-11-yl-N-hydroxybenzamides as HDAC inhibitors” (Methylgene Inc., priority 2006, dated 2013).

What follows are compounds tested against histone deacetylase (HDAC Enzyme) (assay: Inhibition of Histone Deacetylase Enzymatic Activity (Boc-Lys(Ac)-AMC, Fluor-de-Lys developer)). Conditions: Table 9; read-out: HDAC Inhibition (IC50 μM) HDAC Enzyme.
Format: biochemical
Method: The following protocol is used to assay the compounds of the invention.
The mixture is pre-incubated for 5 minutes at room temperature. The reaction is started by bringing the temperature to 37° C. and adding 16 μl substrate. Total reaction volume is 50 μl.
In the Tables 8, 9 and 10, A≦[…]<B≦0.1 μM; 0.1 μM<C≦1 μM; and 1 μM<D≦10 μM.

First: O=C(NO)c1cnc(N2CC3CC(CN(c4cc(C(F)(F)F)ccn4)C3)C2)nc1 [N-hydroxy-2-(7-(4-(trifluoromethyl)pyridin-2-yl)-3,7-diazabicyclo[3.3.1]nonan-3-yl)pyrimidine-5-carboxamide]
Second: O=C(NO)c1cnc(N2C[C@H]3C[C@@H]2CN3c2cc(C(F)(F)F)ccn2)nc1 [N-hydroxy-2-((1R,4R)-5-(4-(trifluoromethyl)pyridin-2-yl)-2,5-diazabicyclo[2.2.1]heptan-2-yl)pyrimidine-5-carboxamide]
The IC50 of the first is higher: 0.1 to 1 µM for the first, under 0.05 µM for the second. The second is the more potent here.

First: Cc1cccc(N2C[C@H]3C[C@@H]2CN3c2ncc(C(=O)NO)cn2)c1 [N-hydroxy-2-((1R,4R)-5-m-tolyl-2,5-diazabicyclo[2.2.1]heptan-2-yl)pyrimidine-5-carboxamide]
Second: COc1cccc(N2C[C@@H]3C[C@H]2CN3c2ncc(C(=O)NO)cn2)c1 [N-hydroxy-2-((1S,4S)-5-(3-methoxyphenyl)-2,5-diazabicyclo[2.2.1]heptan-2-yl)pyrimidine-5-carboxamide]
The IC50 of the first is higher: 0.05 to 0.1 µM for the first, under 0.05 µM for the second. The second is the more potent here.

`Cc1ccc(N2C[C@H]3C[C@@H]2CN3c2ncc(C(=O)NO)cn2)cc1` [N-hydroxy-2-((1R,4R)-5-p-tolyl-2,5-diazabicyclo[2.2.1]heptan-2-yl)pyrimidine-5-carboxamide] and `O=C(NO)c1cnc(N2C[C@@H]3C[C@H]2CN3c2cccc(C(F)(F)F)c2)nc1` [N-hydroxy-2-((1S,4S)-5-(3-(trifluoromethyl)phenyl)-2,5-diazabicyclo[2.2.1]heptan-2-yl)pyrimidine-5-carboxamide] cannot be ordered by IC50: under 0.05 µM for the first, under 0.05 µM for the second.

First: O=C(NO)c1cnc(N2C[C@@H]3C[C@H]2CN3c2ccccc2C(F)(F)F)nc1 [N-hydroxy-2-((1S,4S)-5-(2-(trifluoromethyl)phenyl)-2,5-diazabicyclo[2.2.1]heptan-2-yl)pyrimidine-5-carboxamide]
Second: O=C(NO)c1cnc(N2C[C@@H]3C[C@H]2CN3c2cc(C(F)(F)F)nc3ccccc23)nc1 [N-hydroxy-2-((1S,4S)-5-(2-(trifluoromethyl)quinolin-4-yl)-2,5-diazabicyclo[2.2.1]heptan-2-yl)pyrimidine-5-carboxamide]
The IC50 of the first is higher: 0.1 to 1 µM for the first, under 0.05 µM for the second. The second is the more potent here.

`O=C(NO)c1cnc(N2C[C@@H]3C[C@H]2CN3c2cccc(OC(F)(F)F)c2)nc1` [N-hydroxy-2-((1S,4S)-5-(3-(trifluoromethoxy)phenyl)-2,5-diazabicyclo[2.2.1]heptan-2-yl)pyrimidine-5-carboxamide] and `O=C(NO)c1cnc(N2C[C@@H]3C[C@H]2CN3c2cccc(SC(F)(F)F)c2)nc1` [N-hydroxy-2-((1S,4S)-5-(3-(trifluoromethylthio)phenyl)-2,5-diazabicyclo[2.2.1]heptan-2-yl)pyrimidine-5-carboxamide] cannot be ordered by IC50: under 0.05 µM for the first, under 0.05 µM for the second.

First: O=C(NO)c1cnc(N2C[C@@H]3C[C@H]2CN3C(=O)c2cccc(C(F)(F)F)c2)nc1 [N-hydroxy-2-((1S,4S)-5-(3-(trifluoromethyl)benzoyl)-2,5-diazabicyclo[2.2.1]heptan-2-yl)pyrimidine-5-carboxamide]
Second: O=C(NO)c1cnc(N2C[C@@H]3C[C@H]2CN3c2cccc(C(F)(F)F)c2)s1 [N-hydroxy-2-((1S,4S)-5-(3-(trifluoromethyl)phenyl)-2,5-diazabicyclo[2.2.1]heptan-2-yl)thiazole-5-carboxamide]
The IC50 of the first is higher: 0.05 to 0.1 µM for the first, under 0.05 µM for the second.

Same assay, conditions: Table 10; read-out: HDAC Inhibition (IC50 μM) HDAC Enzyme

`O=C(CCCCCN1C(=O)CN=C(c2ccccc2)c2ccccc21)NO` [(Z)-N-hydroxy-6-(2-oxo-5-phenyl-2,3-dihydro-1H-benzo[e][1,4]diazepin-1-yl)hexanamide] and `O=C(CCCCCCCN1C(=O)CN=C(c2ccccc2)c2ccccc21)NO` [(Z)-N-hydroxy-8-(2-oxo-5-phenyl-2,3-dihydro-1H-benzo[e][1,4]diazepin-1-yl)octanamide] fall in the same range of IC50: 0.1 to 1 µM for the first, 0.1 to 1 µM for the second.

Compared with `O=C(NO)c1cnc(N2CCn3c(nnc3C(F)(F)F)C2)nc1` [N-hydroxy-2-(3-(trifluoromethyl)-5,6-dihydro-[1,2,4]triazolo[4,3-a]pyrazin-7(8H)-yl)pyrimidine-5-carboxamide], `O=C(NO)c1cnc(N2CCn3c(nnc3-c3ccccc3)C2)nc1` [N-hydroxy-2-(3-phenyl-5,6-dihydro-[1,2,4]triazolo[4,3-a]pyrazin-7(8H)-yl)pyrimidine-5-carboxamide] is lower in IC50: 0.05 to 0.1 µM for the first, under 0.05 µM for the second.

With `O=C(NO)c1cnc(N2C[C@H]3C[C@@]3(c3ccccc3)C2)nc1` [N-hydroxy-2-((1R,5S)-1-phenyl-3-azabicyclo[3.1.0]hexan-3-yl)pyrimidine-5-carboxamide] the IC50 was 0.1 to 1 µM.

Same assay, conditions: read-out: HDAC Inhibtion (IC50 μM) HDAC Enzyme

First: Cc1ccc2c(c1)Oc1ccccc1N=C2c1ccc(C(=O)NO)cc1 [(Z)-N-hydroxy-4-(3-methyldibenzo[b,f][1,4]oxazepin-11-yl)benzamide]
Second: Cc1ccc2c(c1)N=C(c1ccc(C(=O)NO)cc1)c1ccccc1O2 [(Z)-N-hydroxy-4-(8-methyldibenzo[b,f][1,4]oxazepin-11-yl)benzamide]
The IC50 of the first is lower: under 0.05 µM for the first, 0.05 to 0.1 µM for the second. The first is the more potent here.

Compared with `O=C(NO)c1ccc(C2=Nc3ccccc3Oc3cc(N4CCOCC4)ccc32)cc1` [(Z)-N-hydroxy-4-(3-morpholinodibenzo[b,f][1,4]oxazepin-11-yl)benzamide], `O=C(NO)c1ccc(C2=Nc3ccccc3Oc3c(OCCN4CCOCC4)cccc32)cc1` [(Z)-N-hydroxy-4-(4-(2-morpholinoethoxy)dibenzo[b,f][1,4]oxazepin-11-yl)benzamide] is lower in IC50: 0.1 to 1 µM for the first, under 0.05 µM for the second. The second is the more potent here.

Compared with `COCCOc1cccc2c1Oc1ccccc1N=C2c1ccc(C(=O)NO)cc1` [(Z)-N-hydroxy-4-(4-(2-methoxyethoxy)dibenzo[b,f][1,4]oxazepin-11-yl)benzamide], `COc1cccc2c1Oc1ccccc1N=C2c1ccc(C(=O)NO)cc1` [(Z)-N-hydroxy-4-(4-methoxydibenzo[b,f][1,4]oxazepin-11-yl)benzamide] is higher in IC50: under 0.05 µM for the first, 0.05 to 0.1 µM for the second.

`C[S+]([O-])c1cccc2c1Oc1ccccc1N=C2c1ccc(C(=O)NO)cc1` (stereo not drawn) [(Z)-N-hydroxy-4-(4-(methylsulfinyl)dibenzo[b,f][1,4]oxazepin-11-yl)benzamide] and `Cc1cccc2c1Oc1ccccc1N=C2c1ccc(C(=O)NO)cc1` [(Z)-N-hydroxy-4-(4-methyldibenzo[b,f][1,4]oxazepin-11-yl)benzamide] fall in the same range of IC50: 0.05 to 0.1 µM for the first, 0.05 to 0.1 µM for the second.

First: CS(=O)(=O)c1cccc2c1Oc1ccccc1N=C2c1ccc(C(=O)NO)cc1 [(Z)-N-hydroxy-4-(4-(methylsulfonyl)dibenzo[b,f][1,4]oxazepin-11-yl)benzamide]
Second: O=C(NO)c1ccc(C2=Nc3ccccc3Oc3c(O)cccc32)cc1 [(Z)-N-hydroxy-4-(4-hydroxydibenzo[b,f][1,4]oxazepin-11-yl)benzamide]
The IC50 of the first is lower: under 0.05 µM for the first, 0.05 to 0.1 µM for the second.

First: CSc1cccc2c1Oc1ccccc1N=C2c1ccc(C(=O)NO)cc1 [(Z)-N-hydroxy-4-(4-(methylthio)dibenzo[b,f][1,4]oxazepin-11-yl)benzamide]
Second: CCCc1cccc2c1Oc1ccccc1N=C2c1ccc(C(=O)NO)cc1 [(Z)-N-hydroxy-4-(4-propyldibenzo[b,f][1,4]oxazepin-11-yl)benzamide]
The IC50 of the first is lower: under 0.05 µM for the first, 0.1 to 1 µM for the second. The first is the more potent here.

Compared with `O=C(NO)c1ccc(C2=Nc3ccccc3Oc3c(OC(F)(F)F)cccc32)cc1` [(Z)-N-hydroxy-4-(4-(trifluoromethoxy)dibenzo[b,f][1,4]oxazepin-11-yl)benzamide], `O=C(NO)c1ccc(C2=Nc3ccccc3Oc3c2cccc3C(F)(F)F)cc1` [(Z)-N-hydroxy-4-(4-(trifluoromethyl)dibenzo[b,f][1,4]oxazepin-11-yl)benzamide] is lower in IC50: 0.1 to 1 µM for the first, under 0.05 µM for the second.

`COc1cccc2c1Oc1ccc(C(F)(F)F)cc1N=C2c1ccc(C(=O)NO)cc1` [(Z)-N-hydroxy-4-(4-methoxy-8-(trifluoromethyl)dibenzo[b,f][1,4]oxazepin-11-yl)benzamide] and `O=C(NO)c1ccc(C2=Nc3cc(C(F)(F)F)ccc3Oc3ccccc32)cc1` [(Z)-N-hydroxy-4-(8-(trifluoromethyl)dibenzo[b,f][1,4]oxazepin-11-yl)benzamide] fall in the same range of IC50: 0.1 to 1 µM for the first, 0.1 to 1 µM for the second.

First: COCCN1c2ccccc2N=C(c2ccc(C(=O)NO)cc2)c2ccccc21 [(Z)-N-hydroxy-4-(5-(2-methoxyethyl)-5H-dibenzo[b,e][1,4]diazepin-11-yl)benzamide]
Second: CC(C)N1c2ccccc2N=C(c2ccc(C(=O)NO)cc2)c2ccccc21 [(Z)-N-hydroxy-4-(5-isopropyl-5H-dibenzo[b,e][1,4]diazepin-11-yl)benzamide]
The IC50 of the first is higher: 0.1 to 1 µM for the first, under 0.05 µM for the second.

First: O=C(NO)c1ccc(C2=Nc3ccccc3N(CCN3CCOCC3)c3ccccc32)cc1 [(Z)-N-hydroxy-4-(5-(2-morpholinoethyl)-5H-dibenzo[b,e][1,4]diazepin-11-yl)benzamide]
Second: O=C(NO)c1ccc(C2=Nc3ccccc3N(CCN3CCOCC3)c3ncccc32)cc1 [(Z)-N-hydroxy-4-(11-(2-morpholinoethyl)-11H-benzo[b]pyrido[2,3-e][1,4]diazepin-5-yl)benzamide]
The IC50 of the first is higher: 0.1 to 1 µM for the first, 0.05 to 0.1 µM for the second.

`Cc1cccc2c1Oc1ccccc1C(c1ccc(C(=O)NO)cc1)=N2` [(Z)-N-hydroxy-4-(6-methyldibenzo[b,f][1,4]oxazepin-11-yl)benzamide] and `O=C(NO)c1ccc(C2=Nc3ccc(C(F)(F)F)cc3Oc3ccccc32)cc1` [(Z)-N-hydroxy-4-(7-(trifluoromethyl)dibenzo[b,f][1,4]oxazepin-11-yl)benzamide] fall in the same range of IC50: 0.1 to 1 µM for the first, 0.1 to 1 µM for the second.

First: O=C(NO)c1ccc(C2=Nc3ccccc3N(CCCN3CCOCC3)c3ncccc32)cc1 [(Z)-N-hydroxy-4-(11-(3-morpholinopropyl)-11H-benzo[b]pyrido[2,3-e][1,4]diazepin-5-yl)benzamide]
Second: CC(C)N1c2ccccc2N=C(c2ccc(C(=O)NO)cc2)c2cccnc21 [(Z)-N-hydroxy-4-(11-isopropyl-11H-benzo[b]pyrido[2,3-e][1,4]diazepin-5-yl)benzamide]
The IC50 of the first is higher: 0.1 to 1 µM for the first, under 0.05 µM for the second. The second is the more potent here.

`O=C(NO)c1ccc2c(c1)N=C(c1ccncc1)c1ccccc1O2` [(Z)-N-hydroxy-11-(pyridin-4-yl)dibenzo[b,f][1,4]oxazepine-8-carboxamide] gave an IC50 of 0.1 to 1 µM.
